{"source": "patent US8367607B2", "about": "“Oxyntomodulin peptide analogue” (Eli Lilly and Company, priority 2009, dated 2013)", "key": {"[1]": {"test": "Food intake, body weight and body composition in DIO mice, Study 1: two week treatment", "type": "in vivo, diet-induced obese (DIO) C57BL/6 mice", "description": "Three to four months old male diet-induced obese (DIO) C57BL/6 mice are used. Animals are individually housed in a temperature-controlled (24° C.) facility with a 12 hour light/dark cycle (lights on 22:00), and have free access to food and water. […] Body weight and the weight of food plus the hopper are measured at the same time. Food consumed in the preceding 24 hours is calculated by subtracting current weight of food plus the hopper from that of the previous day. Absolute changes in body weight are calculated by subtracting the body weight of the animal prior to the first injection. […] Fat free mass is calculated by subtracting fat mass from total body weight."}, "[2]": {"test": "Food intake, body weight, body composition, calorimetry and plasma markers in DIO mice, Study 2: four week treatment", "type": "in vivo, diet-induced obese (DIO) C57BL/6 mice", "description": "Three to four months old male diet-induced obese (DIO) C57BL/6 mice are used. Animals are individually housed in a temperature-controlled (24° C.) facility with a 12 hour light/dark cycle (lights on 22:00), and have free access to food and water. After 2 weeks acclimation to the facility, mice are randomized to treatment groups (n=8-10/group), each group having similar mean body weight and fat mass. Before the experiment, mice are subcutaneously (sc) injected with vehicle solution and weighed for 2 days to acclimate them to the procedures.\nBody weight and the weight of food plus the hopper are measured at the same time. Food consumed in the preceding 24 hours is calculated by subtracting current weight of food plus the hopper from that of the previous day. Absolute changes in body weight are calculated by subtracting the body weight of the animal prior to the first injection. On days 1, 14 and 28 total fat mass is measured by nuclear magnetic resonance (NMR) using an Echo Medical System (Houston, Tex.) instrument. Fat free mass is calculated by subtracting fat mass from total body weight."}, "[3]": {"test": "Oral glucose tolerance test after 2-week treatment in DIO mice", "type": "in vivo", "details": "for Glucose AUC (0 to 120 min), oral glucose load, MEAN: DIO mice", "description": "(§1) Fifty-six hours after the last injection as described in Example 7 (Study 1) in DIO mice, mice are fasted for 16 hours prior to the start of the glucose tolerance test. At time 0, animals are given 2 g/kg dextrose by oral gavage or intraperitoneal (IP) injection. Blood is collected by tail vein bleeding at 0, 15, 30, 60 and 120 minutes after glucose challenge. Glucose concentration is measured by glucometer."}, "[4]": {"test": "Intraperitoneal glucose tolerance test after 4-week treatment in DIO mice", "type": "in vivo", "details": "for Glucose AUC (0 to 120 min), intraperitoneal glucose load, MEAN: after 4 week treatment, DIO mice", "description": "as §1\nAn intraperitoneal glucose tolerance test (IPGTT) is performed on day 29, 3 days after the last injection as described in Example 7 (Study 2) in DIO mice."}, "[5]": {"test": "Intraperitoneal glucose tolerance test in lean mice", "type": "in vivo, C57BL/6 mice", "details": "16 hours before test", "description": "Nine week old male C57BL/6 mice are used in the study Animals are randomized into groups based on fed body weight. […] Food is removed at the time of injection of peptide or vehicle. At time 0, animals are given 2 g/kg dextrose by IP injection. Blood is collected by tail vein bleeding at 0, 3, 6, 12 and 30 minutes after glucose challenge. Glucose concentration is measured by glucometer. Insulin is measure by Mesoscale."}, "[6]": {"test": "Oral glucose tolerance test (OGTT) in ob/ob mice", "type": "in vivo", "details": "single injection 7.5 nmole/kg", "description": "Two to three months old male ob/ob mice are individually housed in a temperature-controlled (24° C.) facility with a 12 hour light/dark cycle (lights on 2200 hours), and have free access to the standard chow and water. After at least 2 weeks of acclimation to the facility, 3-hours fasting blood glucose is measured by tail vein bleeding at 9 AM. Mice with blood glucose under 180 mg/dL are not used. Remaining animals are randomized to treatment groups (N=6-7/group), each group having similar average blood glucose level. The mice are given access to food until the time of injection. […] Food is removed at the time of injection. An OGTT (Table 7) or IPGTT (Table 8) is performed 16 hours after the peptide injection. At time 0, animals are given 2 g/kg dextrose by oral gavage (Table 7) or intraperitoneal injection (Table 8). Blood is collected by tail vein bleeding at 0, 15, 30, 60 and 120 minutes after glucose challenge. Glucose concentration is measured by glucometer."}, "[7]": {"test": "Acute effects on plasma FGF21, triglyceride levels and hepatic gene expression in DIO mice", "type": "in vivo, diet-induced obese C57BL/6 mice", "details": "single sc injection 22.5 nmole/kg", "description": "The day before the study, mice are randomized to treatment groups (N=7/group), each group having similar mean body weight. […] Food is removed at the time of injection of peptide or vehicle. The following morning (approximately 10 AM), the animals are sacrificed to collect plasma and liver tissue. Glucose and triglyceride concentrations are measured using a Hitachi blood chemistry analyzer. Gene expression is determined by RT-PCR. Malonyl-CoA and acetyl-CoA levels are measured by HPLC."}, "[8]": {"details": "high dose, completion of 4-week study"}}, "note": "Marks after values point to notes of the source that are not given here."}
{"substance": "His-(Aib)-Gln-Gly-Thr-Phe-Thr-Ser-Asp-Tyr-Ser-Lys-Tyr-Leu-Asp-Ser-Lys-Lys-Ala-Gln-Glu-Phe-Val-Gln-Trp-Leu-Leu-Asn-(Aib)-Gly-Arg-Asn-Arg-Asn-Asn-Ile-Ala-Cys(20 kDa PEG)-Cys(20 kDa PEG)", "values": [{"measurement": "cumulative weight loss, reduction compared to the vehicle group", "setting": "[1]; 7.5 nmole/kg every 3 days, 2 weeks", "value": "about 9%"}, {"measurement": "Fat mass loss (g fat weight change for 14 days)", "setting": "[1]; 7.5 nmole/kg sc every 3 days", "value": "-2.2 ± 0.3", "unit": "g"}, {"measurement": "Overall weight loss (g weight change for 14 days)", "setting": "[1]; 7.5 nmole/kg sc every 3 days", "value": "-3.1 ± 0.4", "unit": "g"}, {"measurement": "Total food intake (g total for 14 days)", "setting": "[1]; 7.5 nmole/kg sc every 3 days", "value": "35.0 ± 0.8", "unit": "g"}, {"measurement": "vehicle controlled cumulative weight loss", "setting": "[1]; 15 nmole/kg every 3 days, 2 weeks", "value": 18, "unit": "%"}, {"measurement": "Fat mass loss (g fat weight change for 14 days)", "setting": "[1]; 15 nmole/kg sc every 3 days", "value": "-3.9 ± 0.7", "unit": "g"}, {"measurement": "Overall weight loss (g weight change for 14 days)", "setting": "[1]; 15 nmole/kg sc every 3 days", "value": "-6.1 ± 0.9", "unit": "g"}, {"measurement": "Total food intake (g total for 14 days)", "setting": "[1]; 15 nmole/kg sc every 3 days", "value": "29.8 ± 1.5", "unit": "g"}, {"measurement": "cumulative food intake reduction compared to the vehicle group", "setting": "[1]; 15 nmole/kg, end of 2-week study", "value": 27, "unit": "%"}, {"measurement": "effect on food intake and body weight", "setting": "[1]; 7.5 and 15 nmole/kg, 2 weeks", "value": "dose-dependent reduction"}, {"measurement": "Total food intake (g total for the first 14 days)", "setting": "[2]; 6.7 nmole/kg sc every 3 days", "value": "36.0 ± 1.1", "unit": "g"}, {"measurement": "Fat mass loss (g fat weight change for 28 days)", "setting": "[2]; 6.7 nmole/kg sc every 3 days", "value": "-0.7 ± 0.2", "unit": "g"}, {"measurement": "Overall weight loss (g weight change for 28 days)", "setting": "[2]; 6.7 nmole/kg sc every 3 days", "value": "-2.0 ± 0.4", "unit": "g"}, {"measurement": "weight loss compared with 22.5 nmole/kg dose of the positive control", "setting": "[2]; 20 nmole/kg", "value": "significantly greater weight loss"}, {"measurement": "Total food intake (g total for the first 14 days)", "setting": "[2]; 20.0 nmole/kg sc every 3 days", "value": "26.1 ± 1.4", "unit": "g"}, {"measurement": "Fat mass loss (g fat weight change for 28 days)", "setting": "[2]; 20.0 nmole/kg sc every 3 days", "value": "-7.5 ± 0.7", "unit": "g"}, {"measurement": "Overall weight loss (g weight change for 28 days)", "setting": "[2]; 20.0 nmole/kg sc every 3 days", "value": "-11.1 ± 0.9", "unit": "g"}, {"measurement": "maximal weight reduction, of the initial body weight", "setting": "[2]; 20 nmole/kg, after 15 days of treatment", "value": "about 25%"}, {"measurement": "increase of averaged 24-hour energy expenditure versus vehicle", "setting": "[2]; 20 nmole/kg, indirect calorimetry, day 21", "value": 18, "unit": "%"}, {"measurement": "leptin levels versus vehicle treated controls", "setting": "[2]; [8]", "value": "significantly reduced"}, {"measurement": "plasma adiponectin levels versus vehicle treated controls", "setting": "[2]; [8]", "value": "statistically significantly difference"}, {"measurement": "cumulative food intake", "setting": "[2]; high doses (20 nmole/kg)", "value": "significantly decreased"}, {"measurement": "body weight versus positive control group", "setting": "[2]; lower doses (6.7 nmole/kg)", "value": "decreased body weight to a similar degree as seen in the positive control group"}, {"measurement": "Glucose AUC (0 to 120 min), oral glucose load, MEAN", "setting": "[3]; 7.5 nmole/kg", "value": "17722* mg * min/dL"}, {"measurement": "Glucose AUC (0 to 120 min), oral glucose load, MEAN", "setting": "[3]; 15 nmole/kg", "value": "17518* mg * min/dL"}, {"measurement": "blood glucose at all time points before and after the oral glucose challenge versus vehicle", "setting": "[3]; all doses", "value": "significantly lowered"}, {"measurement": "Glucose AUC (0 to 120 min), intraperitoneal glucose load, MEAN", "setting": "[4]; 6.7 nmole/kg", "value": 30073, "unit": "mg·min/dL"}, {"measurement": "Glucose AUC (0 to 120 min), intraperitoneal glucose load, MEAN", "setting": "[4]; 20.0 nmole/kg", "value": "19264* mg * min/dL"}, {"measurement": "blood glucose at all time points before and after IP glucose challenge versus vehicle", "setting": "[4]; high dose of analogue, both doses of positive control, day 29", "value": "significantly lowered"}, {"measurement": "glucose levels after IP glucose challenge", "setting": "[4]; low dose, day 29", "value": "little effect"}, {"measurement": "Glucose AUC (0 to 30 min), IPGTT in lean mice, MEAN", "setting": "[5]; 5 nmole/kg", "value": 7059, "unit": "mg·min/dL"}, {"measurement": "Insulin AUC (0 to 30 min), IPGTT in lean mice, MEAN", "setting": "[5]; 5 nmole/kg", "value": "30.67* ng * min/mL"}, {"measurement": "Glucose AUC (0 to 30 min), IPGTT in lean mice, MEAN", "setting": "[5]; 15 nmole/kg", "value": "6103* mg * min/dL"}, {"measurement": "Insulin AUC (0 to 30 min), IPGTT in lean mice, MEAN", "setting": "[5]; 15 nmole/kg", "value": "45.26* ng * min/mL"}, {"measurement": "blood glucose in ob/ob mice", "setting": "[6]", "value": "normalized blood glucose"}, {"measurement": "blood glucose levels at all time points after glucose challenge versus vehicle control group", "setting": "[6]; ob/ob mice", "value": "significantly lower"}, {"measurement": "decrease of liver acetyl-CoA concentration versus vehicle control", "setting": "[7]; DIO mice", "value": 39, "unit": "%"}, {"measurement": "decrease of liver malonyl-CoA concentration versus vehicle control", "setting": "[7]; DIO mice", "value": 63, "unit": "%"}, {"measurement": "decrease of hepatic ChREBP gene expression", "setting": "[7]; RT-PCR", "value": 52, "unit": "%"}, {"measurement": "decrease of hepatic PCSK9 gene expression", "setting": "[7]; RT-PCR", "value": 61, "unit": "%"}, {"measurement": "increase of hepatic pgc-1a gene expression", "setting": "[7]; RT-PCR", "value": 7, "unit": "fold"}, {"measurement": "induction of hepatic FGF21 gene expression", "setting": "[7]; RT-PCR", "value": 17, "unit": "fold"}, {"measurement": "increase in circulating FGF21", "setting": "[7]; plasma", "value": 6, "unit": "fold"}]}
